In PubChem BioAssay AID651866 (The Scripps Research Institute Molecular Screening Center, 2012) one finds kinact/KI data, which are given here for 1 molecule.

This assay addresses Protein-arginine deiminase type-3 (Homo sapiens) (UniProt Q9ULW8). The assay can be described thus: PubChem AID 651866. Particulars: recombinant PAD3, citrulline colorimetric, time-dependent inactivation; active compounds read high.

Protein-arginine deiminase type-3 (Homo sapiens), sequence (Q9ULW8 whole entry, looked up): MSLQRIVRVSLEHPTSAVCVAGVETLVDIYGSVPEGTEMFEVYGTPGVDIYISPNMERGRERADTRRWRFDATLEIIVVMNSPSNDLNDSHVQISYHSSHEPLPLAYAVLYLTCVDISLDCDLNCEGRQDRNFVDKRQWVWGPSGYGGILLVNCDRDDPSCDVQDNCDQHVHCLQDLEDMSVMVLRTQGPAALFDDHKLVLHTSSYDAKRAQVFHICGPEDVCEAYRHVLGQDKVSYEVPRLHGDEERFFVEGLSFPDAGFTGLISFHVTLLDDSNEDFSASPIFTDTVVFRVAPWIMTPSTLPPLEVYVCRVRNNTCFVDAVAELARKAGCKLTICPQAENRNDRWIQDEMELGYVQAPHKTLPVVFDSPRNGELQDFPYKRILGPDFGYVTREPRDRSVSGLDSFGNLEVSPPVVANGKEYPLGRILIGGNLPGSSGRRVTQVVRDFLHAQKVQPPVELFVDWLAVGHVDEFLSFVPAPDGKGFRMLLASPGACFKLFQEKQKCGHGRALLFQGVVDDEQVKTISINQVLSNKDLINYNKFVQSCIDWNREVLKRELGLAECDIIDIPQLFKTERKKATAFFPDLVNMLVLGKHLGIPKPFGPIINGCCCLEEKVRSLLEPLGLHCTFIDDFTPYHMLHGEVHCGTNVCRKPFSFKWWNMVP

For `NC1=CC(=O)c2ccc(-c3cccc(C(=O)O)n3)nc2C1=O`, the kinact/KI was 31.7 M⁻¹ s⁻¹.

A word on the kinact/KI: it is the maximal inactivation rate divided by the concentration that gives half of it.
